Non-standard residues stand in square brackets, D forms with d. Residues, ends and D or L forms follow the SMILES beside them. Aib = CC(C)(N)C(=O)O
Columns and labels:
Assay in all cases: MTT cytotoxicity assay, 72 hours (Example 13)
Format in all cases: cell-based, human
A549 (lung) = tested on: A549 (lung)
Description: (§1) The cytotoxic activity of other synthesized bombesin analogs was tested on eight human tumor cell lines namely HT-29, SW620, PTC (all colon), PA-1 (ovary), A549 (lung), HBL100(breast), MOLT-4 (leukemia) and DU145 (prostate). The tumor cells were collected at exponential growth phase and resuspended in medium (1.5×10^6) cells/ml in RPMI 1640 containing 10% FBS). 150 μl of medium was added to the wells of a 96-well tissue culture plate (Nunc, Denmark) followed by 30 μl of cell suspension. The plate was left in incubator (37° C., 5% CO2 overnight. 20 μl of the peptide (10^−7×10^×10M concentration) was added to marked wells of the 96-well plate. Each concentration was plated in cells served as blanks. A total volume of 200 μl was ensured in each well and plate was left in incubator (37° C., 5% CO2). After 72 hours of incubation an MTT assay was performed and percentage cytotoxicity was calculated with respect to control cells. Following tables show the cytotoxicity achieved on various cell lines at different concentrations.

DU145 (prostate) = tested on: DU145 (prostate)
Description: as §1

HBL100 (breast) = conditions: HBL
Description: as §1

HT-29 (colon) = tested on: HT-29 (colon)
Description: as §1

MOLT-4 (leukemia) = tested on: MOLT-4 (leukemia)
Description: as §1

PA-1 (ovary) = tested on: PA-1 (ovary)
Description: as §1

PTC (colon) = tested on: PTC (colon)
Description: as §1

SW620 (colon) = tested on: SW620 (colon)
Description: as §1

| SMILES | Percent Cytotoxicity (A549 (lung); A549, 10 nM) [%] | Percent Cytotoxicity (A549 (lung); A549, 100 nM) [%] | Percent Cytotoxicity (DU145 (prostate); DU145, 10 nM) | Percent Cytotoxicity (DU145 (prostate); DU145, 100 nM) | Percent Cytotoxicity (HBL100 (breast); 1 nM) [%] | Percent Cytotoxicity (HBL100 (breast); 10 nM) [%] | Percent Cytotoxicity (HBL100 (breast); 100 nM) [%] | Percent Cytotoxicity (HBL100 (breast); 100 PM) [%] | Percent Cytotoxicity (HT-29 (colon); HT29, 10 nM) [%] | Percent Cytotoxicity (HT-29 (colon); HT29, 100 nM) [%] | Percent Cytotoxicity (MOLT-4 (leukemia); MOLT4, 1 nM) | Percent Cytotoxicity (MOLT-4 (leukemia); MOLT4, 10 nM) | Percent Cytotoxicity (MOLT-4 (leukemia); MOLT4, 100 nM) [%] | Percent Cytotoxicity (PA-1 (ovary); PA-1, 1 nM) [%] | Percent Cytotoxicity (PA-1 (ovary); PA-1, 10 nM) [%] | Percent Cytotoxicity (PA-1 (ovary); PA-1, 100 nM) [%] | Percent Cytotoxicity (PA-1 (ovary); PA-1, 100 PM) [%] | Percent Cytotoxicity (PTC (colon); 1 nM) [%] | Percent Cytotoxicity (PTC (colon); 10 nM) [%] | Percent Cytotoxicity (PTC (colon); 100 nM) [%] | further results |
| --- | --- | --- | --- | --- | --- | --- | --- | --- | --- | --- | --- | --- | --- | --- | --- | --- | --- | --- | --- | --- | --- |
| CC[C@H](C)[C@H](NC(=O)[C@H](Cc1c[nH]cn1)NC(=O)C(C)(C)NC(=O)[C@@H](NC(=O)[C@H](C)NC(=O)[C@H](Cc1c[nH]c2ccccc12)NC(=O)[C@H](CCC(N)=O)NC(=O)[C@H](N)Cc1ccccc1)C(C)C)C(N)=O [SEQ ID: 7, D-Phe-Gln-Trp-Ala-Val-Aib-His-Ile-NH2] (H-[dF]QWAV[Aib]HI-NH2; N-terminus assumed) | 17.9 ± 0.9 | 6.7 ± 2.0 | NIL | NIL | 12.0 ± 0.7 | 7.0 ± 0.7 | 16.1 ± 3.9 | 4.0 ± 0.6 | 28.2 ± 2.8 | 15.5 ± 1.9 | NIL | NIL | 13.1 ± 0.3 | 25.6 ± 2.9 | 22.7 ± 3.4 | 9.6 ± 4.1 | 24.5 ± 4.2 | 12.4 ± 2.1 | 7.6 ± 0.7 | 9.3 ± 1.8 | Percent Cytotoxicity (PTC (colon); 100 PM): 8.2 ± 0.9%; Percent Cytotoxicity (SW620 (colon); SW620, 1 nM): 32.0 ± 5.8%; Percent Cytotoxicity (SW620 (colon); SW620, 10 nM): 20.8 ± 1.9%; Percent Cytotoxicity (SW620 (colon); SW620, 100 nM): 25.4 ± 2.9%; Percent Cytotoxicity (SW620 (colon); SW620, 100 PM): 33.6 ± 5.8% |
| CCCC(CCC)(NC(=O)[C@@H](NC(=O)[C@H](C)NC(=O)[C@@H](Cc1c[nH]c2ccccc12)NC(=O)[C@H](CCC(N)=O)NC(=O)[C@H](N)Cc1ccccc1)C(C)C)C(=O)N[C@@H](Cc1c[nH]cn1)C(=O)N[C@@H](CC(C)C)C(N)=O [SEQ ID: 8, D-Phe-Gln-D-Trp-Ala-Val-Dpg-His-Leu-NH2] | 20.7 ± 2.2 | 21.7 ± 3.3 | 22.5 ± 2.2% | 19.1 ± 2.1% | 12.2 ± 1.9 | 14.4 ± 2.1 | 11.9 ± 2.1 | 12.1 ± 1.9 | 18.9 ± 4.2 | 34.8 ± 4.2 | 9.3 ± 0.2% | 12.8 ± 3.3% | 2.6 ± 0.1 | 23.8 ± 4.2 | 20.4 ± 3.0 | 10.4 ± 3.7 | 23.3 ± 5.5 | 12.5 ± 1.7 | 5.4 ± 1.7 | 8.7 ± 2.1 | Percent Cytotoxicity (A549 (lung); A549, 1 nM): 19.7 ± 3.1%; Percent Cytotoxicity (A549 (lung); A549, 100 PM): 17.0 ± 2.7%; Percent Cytotoxicity (DU145 (prostate); DU145, 1 nM): 21.4 ± 6.2%; Percent Cytotoxicity (DU145 (prostate); DU145, 100 PM): 28.1 ± 3.5%; Percent Cytotoxicity (HT-29 (colon); HT29, 1 nM): 34.7 ± 3.3%; Percent Cytotoxicity (HT-29 (colon); HT29, 100 PM): 21.4 ± 3.1%; Percent Cytotoxicity (MOLT-4 (leukemia); MOLT4, 100 PM): 16.6 ± 3.1%; Percent Cytotoxicity (PTC (colon); 100 PM): 12.3 ± 1.9%; Percent Cytotoxicity (SW620 (colon); SW620, 1 nM): 20.6 ± 3.9%; Percent Cytotoxicity (SW620 (colon); SW620, 10 nM): 33.0 ± 3.8%; Percent Cytotoxicity (SW620 (colon); SW620, 100 nM): 29.4 ± 2.9%; Percent Cytotoxicity (SW620 (colon); SW620, 100 PM): 20.6 ± 3.9% |

Source: patent US6989371B1, “Bombesin analogs for treatment of cancer” (Dabur Research Foundation, priority 1996, dated 2006)
